Measured values as given in patent US20170305922A1, “CARM1 INHIBITORS AND USES THEREOF” (Epizyme, Inc., priority 2014, published 2017).

Key:
[1] = molecular target: T1, Human CARM1 (PRMT4) (Homo sapiens, UniProt Q86X55); assay: CARM1 enzyme assay on peptide substrates (3H-SAM Flashplate); details: Biochemical assay; CARM1 0.25 nM, 3H-SAM 30 nM, peptide 250 nM; read-out: Biochem IC50
T1 construct: Flag-CARM1-His was eluted with 200 ug/ml FLAG peptide in buffer A; made in house; host or cells: HEK 293F cells infected with recombinant baculovirus (pFastBacMam)
T1 sequence (Q86X55 1-585 isoform Q86X55-1): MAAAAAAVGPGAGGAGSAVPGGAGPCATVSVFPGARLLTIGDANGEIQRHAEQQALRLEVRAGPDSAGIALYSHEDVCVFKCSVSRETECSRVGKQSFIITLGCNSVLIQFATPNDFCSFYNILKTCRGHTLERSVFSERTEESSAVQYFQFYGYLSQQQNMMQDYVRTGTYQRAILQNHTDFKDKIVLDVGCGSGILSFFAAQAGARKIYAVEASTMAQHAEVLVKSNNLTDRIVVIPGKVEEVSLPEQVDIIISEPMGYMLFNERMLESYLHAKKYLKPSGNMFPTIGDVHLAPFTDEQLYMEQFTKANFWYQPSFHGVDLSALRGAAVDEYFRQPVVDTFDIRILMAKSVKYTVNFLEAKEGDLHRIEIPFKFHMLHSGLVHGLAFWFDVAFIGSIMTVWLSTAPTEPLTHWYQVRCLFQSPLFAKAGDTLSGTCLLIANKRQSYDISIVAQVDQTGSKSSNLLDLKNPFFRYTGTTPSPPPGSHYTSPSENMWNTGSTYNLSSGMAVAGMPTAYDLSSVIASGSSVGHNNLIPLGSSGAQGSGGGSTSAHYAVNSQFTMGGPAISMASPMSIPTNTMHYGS

[2] = test system: asymmetric di-methyl PABP1 in RKO cells; assay: RKO methylation assay: In Cell Western (ICW) for asymmetric di-methyl PABP1 (PABP1me2a); details: Cellular-based (PABP1me2a) ICW (In Cell Western) assay
In short: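 In-cell western on compound-exposed RKO cells (48 hours): asymmetric di-methyl PABP1 detected by antibody at 800 nm, DNA content by DRAQ5 at 700 nm. Percent inhibition from signal ratios against DMSO (minimum) and 20 μM reference compound (maximum) wells; IC50 curves fitted from triplicates.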

| IC50 [1] [µM] | IC50 ([2]; Homo sapiens, RKO, 48 h) [µM] | IC50 ([2]; 48 hours) [µM] | SMILES |
| --- | --- | --- | --- |
| 0.00536 | 0.0909 | – | CNC[C@@H](O)COc1ccc(Cl)c(-c2nc(-c3c(C)noc3C)c(C)c(N3CC4(CCC(OC)C4)C3)n2)c1 (some centres unmarked) [Example 263] |
| 0.008 | 0.059 | – | CCc1onc(C)c1-c1nc(-c2cc(OC[C@H](O)CNC)ccc2Cl)nc(N2CC3(CN(CC(F)(F)F)C3)C2)c1C [Example 227] |
| 0.00142 | 0.155 | – | CNC[C@H](O)COc1ccc(Cl)c(-c2nc(-c3c(C)noc3C)c(C)c(N3Cc4cccnc4C3)n2)c1 [Example 293] |
| 0.002 | 0.027 | – | CNC[C@@H](O)COc1ccc(Cl)c(-c2nc(-c3c(C)noc3C)c(C)c(N3Cc4ccc(OCCOC)nc4C3)n2)c1 [Example 249] |
| 0.0105 | 0.174 | – | CNC[C@@H](O)COc1ccc(Cl)c(-c2nc(-c3c(C)noc3C)c(C)c(N3CC4(CCN(C(=O)OCC(F)F)CC4)C3)n2)c1 [Example 191] |
| 0.00652 | 0.173 | – | CNC[C@@H](O)COc1ccc(Cl)c(-c2nc(-c3c(C)noc3C)c(C)c(N3CC4(CC(C#N)C4)C3)n2)c1 [Example 306] |
| 0.0037 | 0.173 | – | CNC[C@@H](O)COc1ccc(Cl)c(-c2nc(-c3c(C)noc3C)c(C)c(N3CC4(CC(Cl)C4)C3)n2)c1 [Example 141] |
| 0.0061 | 0.488 | – | CNC[C@@H](O)COc1ccc(Cl)c(-c2nc(-c3c(C)noc3C)c(C)c(N3CC(F)(C(=O)N4CCC4)C3)n2)c1 [Example 184] |
| 0.0109 | 0.394 | – | CNC[C@@H](O)COc1ccc(Cl)c(-c2nc(-c3c(C)noc3C)c(C)c(N3CC4(CCC(S(C)(=O)=O)CC4)C3)n2)c1 [Example 97] |
| 0.0028 | 0.015 | – | CNC[C@@H](O)COc1ccc(Cl)c(-c2nc(-c3c(C)noc3C)c(C)c(N3Cc4cnc(N5CC(F)(F)C5)nc4C3)n2)c1 [Example 143] |
| 0.0121 | 0.668 | – | CNC[C@@H](O)COc1ccc(Cl)c(-c2nc(-c3c(C)noc3C)c(C)c(N3C[C@H]4C[C@@H]3CN4CC(F)(F)F)n2)c1 [Example 151] |
| 0.0021 | 0.054 | – | CNC[C@@H](O)COc1ccc(Cl)c(-c2nc(-c3c(C)noc3C)c(C)c(N3CC4(C3)CN(C3CC3)C4)n2)c1 [Example 96] |
| 0.0085 | 0.045 | – | CNC[C@@H](O)COc1ccc(Cl)c(-c2nc(-c3c(C)noc3C)c(C)c(N3CC4(CC(OCC(F)F)C4)C3)n2)c1 [Example 134] |
| 0.0041 | 0.052 | – | CNC[C@@H](O)COc1ccc(Cl)c(-c2nc(-c3c(C)c(Cl)nn3C)c(C)c(N3CC4(CC(OC)C4)C3)n2)c1 [Example 193] |
| 0.0072 | 0.066 | – | CNC[C@@H](O)COc1ccc(Cl)c(-c2nc(-c3c(C)noc3C)c(C)c(N3Cc4cn(CCOC)nc4C3)n2)c1 [Example 112] |
| 0.0018 | 0.292 | – | CNC[C@@H](O)COc1cccc(-c2nc(-c3c(C)cnn3C)c(C)c(N3Cc4cccnc4C3)n2)c1 [Example 59] |
| 0.0014 | 0.024 | – | CNC[C@@H](O)COc1ccc(Cl)c(-c2nc(-c3c(C)c(Cl)nn3C)c(C)c(N3Cc4cnc(OCCOC)nc4C3)n2)c1 [Example 178] |
| 0.00835 | – | 0.0277 | CNC[C@@H](O)COc1ccc(Cl)c(-c2nc(-c3c(C)c(Br)nn3C)c(C)c(N3CC4(CN(CC(F)(F)F)C4)C3)n2)c1 [Example 305] |
| 0.00495 | 0.269 | – | CNC[C@@H](O)COc1ccc(Cl)c(-c2nc(-c3c(C)noc3C)c(C)c(N3CC4(CC(N5CCOCC5)C4)C3)n2)c1 [Example 270] |
| 0.0004 | 0.171 | – | CNC[C@@H](O)COc1ccc(Cl)c(-c2nc(-c3c(C)noc3C)c(C)c(N3CC4=C(C3)CN(c3nc(-c5cc(OC[C@H](O)CNC)ccc5Cl)nc(-c5c(C)noc5C)c3C)C4)n2)c1 [Example 198] |
| 0.0021 | 0.056 | – | CNC[C@@H](O)COc1ccc(Cl)c(-c2nc(-c3c(C)cnn3C)c(C)c(N3Cc4cccnc4C3)n2)c1 [Example 82] |
| 0.0047 | 0.073 | – | CNC[C@@H](O)COc1ccc(Cl)c(-c2nc(-c3c(C)noc3C)c(C)c(N3CC4(CC(OC(F)(F)F)C4)C3)n2)c1 [Example 228] |

| IC50 [1] [µM] | IC50 ([2]; Homo sapiens, RKO, 48 h) [µM] | IC50 ([2]; 48 hours) [µM] | SMILES |
| --- | --- | --- | --- |
| 0.00386 | 0.0454 | – | CCOc1ncc2c(n1)CN(c1nc(-c3cc(OC[C@H](O)CNC)ccc3Cl)nc(-c3c(Cl)cnn3C)c1C)C2 [Example 307] |
| 0.006 | 0.419 | – | CNC[C@@H](O)COc1ccc(Cl)c(-c2nc(-c3c(C)noc3C)c(C)c(N3CC4(C3)CC(O)(C(F)F)C4)n2)c1 [Example 218] |
| 0.0039 | 0.031 | – | CNC[C@@H](O)COc1ccc(Cl)c(-c2nc(-c3c(C)noc3C)c(C)c(N3Cc4cnc(SC)nc4C3)n2)c1 [Example 117] |
| 0.0087 | 0.546 | – | CNC[C@@H](O)COc1ccc(Cl)c(-c2nc(-c3c(C)noc3C)c(C)c(N3CC4(CN(C(=O)N(C)C)C4)C3)n2)c1 [Example 41] |
| 0.0056 | 0.112 | – | CNC[C@@H](O)COc1ccc(Cl)c(-c2nc(-c3c(C)noc3C)c(C)c(N3CC4(C3)CC(F)(F)C4)n2)c1 [Example 78] |
| 0.0062 | 0.292 | – | CNC[C@@H](O)COc1ccc(Cl)c(-c2nc(-c3c(C)noc3C)c(C)c(N3CC4(CC(C(=O)N5CCC5)C4)C3)n2)c1 [Example 163] |
| 0.0049 | 0.348 | – | CNC[C@@H](O)COc1ccc(Cl)c(-c2nc(-c3c(C)noc3C)c(C)c(N3CCN(C(=O)OCC(F)F)CC3)n2)c1 [Example 232] |
| 0.0047 | 0.057 | – | CNC[C@@H](O)COc1ccc(Cl)c(-c2nc(-c3c(C)noc3C)c(C)c(N3CC4(CCC(OCC(F)F)CC4)C3)n2)c1 [Example 172] |
| 0.00228 | 0.0305 | – | CNC[C@@H](O)COc1ccc(Cl)c(-c2nc(-c3c(Cl)cnn3C)c(C)c(N3CC4=C(CN(C(=O)OC)C4)C3)n2)c1 [Example 335] |
| 0.007 | 0.166 | – | CNC[C@@H](O)COc1ccc(Cl)c(-c2nc(-c3c(C)noc3C)c(C)c(N3C[C@H]4CN(CC(F)F)C[C@H]4C3)n2)c1 [Example 30] |
| 0.0052 | 0.175 | – | CNC[C@@H](O)COc1ccc(Cl)c(-c2nc(-c3c(C)noc3C)c(C)c(N3Cc4ccncc4C3C)n2)c1 (some centres unmarked) [Example 124] |
| 0.0113 | 0.068 | – | CNC[C@@H](O)COc1ccc(Cl)c(-c2nc(-c3c(C)noc3C)c(C)c(N3CC4(CCN4CC(F)(F)F)C3)n2)c1 [Example 100] |
| 0.0088 | 0.389 | – | CNC[C@@H](O)COc1ccc(Cl)c(-c2nc(-c3c(C)noc3C)c(C)c(N3C[C@@H]4C[C@H]3CN4CC(F)(F)F)n2)c1 [Example 120] |
| 0.0021 | 0.12 | – | CNC[C@@H](O)COc1ccc(Cl)c(-c2nc(-c3c(C)noc3C)c(C)c(N3Cc4nc(C5CC5)oc4C3)n2)c1 [Example 210] |
| 0.0112 | 0.822 | – | CNC[C@@H](O)COc1ccc(Cl)c(-c2nc(-c3c(C)noc3C)c(C)c(N3CC4(CC(S(C)(=O)=O)C4)C3)n2)c1 [Example 111] |
| 0.0033 | 0.074 | – | CNC[C@@H](O)COc1ccc(Cl)c(-c2nc(-c3c(C)noc3C)c(C)c(N3CC4(CCC(SC)CC4)C3)n2)c1 [Example 83] |
| 0.00567 | 0.0484 | – | CNC[C@@H](O)COc1ccc(Cl)c(-c2nc(-c3c(C)noc3C)c(C)c(N3CC4(C3)CN(C(C)C(F)(F)F)C4)n2)c1 (some centres unmarked) [Example 283] |
| 0.0069 | 0.55 | – | CNC[C@@H](O)COc1ccc(Cl)c(-c2nc(-c3c(C)noc3C)c(C)c(N3CC4(CC(C(=O)N5CC(OC)C5)C4)C3)n2)c1 [Example 162] |
| 0.0034 | 0.276 | – | CNC[C@@H](O)COc1ccc(F)c(-c2nc(-c3c(C)noc3C)c(C)c(N3CC4(CC=CCC4)C3)n2)c1 [Example 57] |
| 0.00234 | 0.0326 | – | CNC[C@@H](O)COc1ccc(Cl)c(-c2nc(-c3c(C)noc3C)c(C)c(N3Cc4cccnc4C3)n2)c1 [Example 262] |
| 0.00294 | 0.0176 | – | CNC[C@@H](O)COc1ccc(Cl)c(-c2nc(-c3c(Cl)cnn3C)c(C)c(N3Cc4cnc(N5CC(OC)C5)nc4C3)n2)c1 [Example 299] |
